One assay relates to MV4; 11 cells. Put plainly: inhibiting the growth of MV4; 11 cells. The assay is classed as cell-based. The settings on record: Homo sapiens.
For a further assay, the target named is T1, hClpP (Homo sapiens, UniProt Q16740).
T1 construct: made in house
Briefly: activating ClpP hydrolysis of FITC-casein (fluorescence kinetic detection). The assay is classed as biochemical. The settings on record: hClpP 1 μM, FITC-Casein 4 μM, 37° C. Summed up: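 hClpP at 1 μM final preincubated with compounds (assay-buffer dilutions 200 μM–2 nM, before mixing) 30 min at 37 °C, then 4 μM final FITC-casein added. Fluorescence read kinetically at 37 °C every 1 min for 15 min, duplicate wells.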

T1 sequence (Q16740 57-277): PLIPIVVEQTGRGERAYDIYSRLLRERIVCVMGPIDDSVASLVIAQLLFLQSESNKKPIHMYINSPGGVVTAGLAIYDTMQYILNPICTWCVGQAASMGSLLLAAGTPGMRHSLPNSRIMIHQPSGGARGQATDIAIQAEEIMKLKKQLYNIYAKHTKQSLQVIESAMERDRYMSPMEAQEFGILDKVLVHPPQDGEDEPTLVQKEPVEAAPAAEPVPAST

One may read the IC50 as the concentration that inhibits the measured activity by half. Usually EC50 stands for the concentration giving half of the maximal effect. Read a low EC50 as higher potency in that assay. `O=c1c2c(n3nccc3n1Cc1ccc(Cl)cc1)CCN(Cc1cccc(Cl)c1)C2` [Compound I-162, 4-(4-chlorobenzyl)-7-(3-chlorobenzyl)-6,7,8,9-tetrahydropyrazolo[1,5-a]pyrido[3,4-e]pyrimidine-5(4H)-one]: the IC50 in the assay on MV4; 11 cells was in the range of 1000 to 10000 nM. Also, the EC50 on hClpP fell in the range of 1000 to 10000 nM.
`Cn1cncc1CN1CCc2c(c(=O)n(Cc3ccccc3)c3ncccc23)C1` [Compound I-33, 6-benzyl-3-((1-methyl-1H-imidazol-5-yl)methyl)-2,3,4,6-tetrahydropyrido[3,4-c][1,8]naphthyridine-5-(1H)-one]: in the assay on MV4; 11 cells, the IC50 fell in the range of 1000 to 10000 nM. For the same molecule, the EC50 on hClpP fell in the range of 10000 to 100000 nM.
In turn, `N#Cc1cccc(CN2CCc3c(c(=O)n(Cc4ccccc4)c4nccn34)C2)c1` [Compound I-111, 7-(3-cyanobenzyl)-4-benzyl-6,7,8,9-tetrahydroimidazo[1,2-a]pyrido[3,4-e]pyrimidine-5(4H)-one] returned an IC50 in the assay with MV4; 11 cells of less than 1000 nM. Besides, at hClpP, the EC50 was less than 1000 nM.
Molecule `Cc1ccc(Cn2c(=O)c3c(c4cccnc42)CCN(Cc2cccc(F)c2)C3)cc1` [Compound I-93, 6-(4-methylbenzyl)-3-(3-fluorobenzyl)-2,3,4,6-tetrahydropyrido[3,4-c][1,8]naphthyridine-5-(1H)-one] displayed an IC50 with MV4; 11 cells of less than 1000 nM. Further, the EC50 on hClpP is less than 1000 nM.
In the assay on MV4; 11 cells, `O=c1c2c(c3cccnc3n1Cc1ccccc1F)CCN(Cc1ccccc1)C2` [Compound I-40, 3-benzyl-6-(2-fluorobenzyl)-2,3,4,6-tetrahydropyrido[3,4-c][1,8]naphthyridine-5-(1H)-one] came in with an IC50 of less than 1000 nM. In addition, on hClpP, the EC50 lay in the range of 1000 to 10000 nM.
The corresponding values for `O=c1c2c(n3ccnc3n1Cc1ccc(Cl)cc1)CCN(Cc1cccc(F)c1)C2` [Compound I-118, 7-(3-fluorobenzyl)-4-(4-chlorobenzyl)-6,7,8,9-tetrahydroimidazo[1,2-a]pyrido[3,4-e]pyrimidine-5(4H)-one] are less than 1000 nM and less than 1000 nM.
Molecule `Cc1ccc(Cn2c(=O)c3c(n4ccnc24)CCN(Cc2cccc(C#N)c2)C3)cc1` [Compound I-136, 7-(3-cyanobenzyl)-4-(4-methylbenzyl)-6,7,8,9-tetrahydroimidazo[1,2-a]pyrido[3,4-e]pyrimidine-5(4H)-one] gave an IC50 in the assay with MV4; 11 cells of less than 1000 nM. At hClpP, this molecule registered an EC50 of less than 1000 nM.
Consider `N#Cc1cccc(CN2CCc3c(c(=O)n(Cc4ccc(C(F)(F)F)cc4)c4nccn34)C2)c1` [Compound I-131, 7-(3-cyanobenzyl)-4-(4-trifluoromethylbenzyl)-6,7,8,9-tetrahydroimidazo[1,2-a]pyrido[3,4-e]pyrimidine-5(4H)-one], for which the IC50 in the assay on MV4; 11 cells is less than 1000 nM. The same molecule returned an EC50 on hClpP of less than 1000 nM.
Turning to `O=c1c2c(c3sccc3n1Cc1ccc(C(F)(F)F)cc1)CCN(Cc1ccccc1)C2` [Compound I-103, 7-benzyl-4-(4-trifluoromethylbenzyl)-6,7,8,9-tetrahydrothieno[3,2-C][2,7]naphthyridine-5(4H)-one], in the assay on MV4; 11 cells, the IC50 is less than 1000 nM. This molecule had an EC50 on hClpP of less than 1000 nM.
`CCc1ccc(Cn2c(=O)c3c(c4cccnc42)CCN(Cc2cccc(F)c2)C3)cc1` [Compound I-95, 6-(4-ethylbenzyl)-3-(3-fluorobenzyl)-2,3,4,6-tetrahydropyrido[3,4-c][1,8]naphthyridine-5-(1H)-one] displayed an IC50 in the assay on MV4; 11 cells of less than 1000 nM. The molecule further yielded an EC50 on hClpP of less than 1000 nM.
The molecule `O=c1c2c(n3ccnc3n1Cc1ccc(Cl)cc1)CCN(Cc1ccccc1)C2` [Compound I-117, 7-benzyl-4-(4-chlorobenzyl)-6,7,8,9-tetrahydroimidazo[1,2-a]pyrido[3,4-e]pyrimidine-5(4H)-one] displayed an IC50 in the assay with MV4; 11 cells of less than 1000 nM. This molecule also gave an EC50 at hClpP of less than 1000 nM.
In the assay on MV4; 11 cells, `O=c1c2c(n3ncnc3n1Cc1ccc(C(F)(F)F)cc1)CCN(Cc1cccc(Cl)c1)C2` [Compound I-150, 4-(4-trifluoromethylbenzyl)-7-(3-chlorobenzyl)-6,7,8,9-tetrahydropyrido[3,4-e][1,2,4]triazolo[1,5-a]pyrimidine-5(4H)-one] yielded an IC50 of 1000 to 10000 nM. This molecule also showed an EC50 on hClpP of 1000 to 10000 nM.
Molecule `Cc1cccc(CN2CCc3c(c(=O)n(Cc4ccc(F)cc4)c4nccn34)C2)c1` [Compound I-115, 7-(3-methylbenzyl)-4-(4-fluorobenzyl)-6,7,8,9-tetrahydroimidazo[1,2-a]pyrido[3,4-e]pyrimidine-5(4H)-one] yielded an IC50 with MV4; 11 cells of less than 1000 nM. Also, the EC50 at hClpP was less than 1000 nM.
As for `O=c1c2c(n3ccnc3n1Cc1ccc3c(c1)OCO3)CCN(Cc1cccc(Cl)c1)C2` [Compound I-147, 7-(3-chlorobenzyl)-4-([1,3]benzodioxol-5-ylmethyl)-6,7,8,9-tetrahydroimidazo[1,2-a]pyrido[3,4-e]pyrimidine-5(4H)-one], the IC50 with MV4; 11 cells was in the range of 1000 to 10000 nM. On hClpP, this molecule yielded a concentration for a half-maximal effect (EC50) of 1000 to 10000 nM.
`Cn1cnc(CN2CCc3c(c(=O)n(Cc4ccccc4)c4ncccc34)C2)c1` [Compound I-32, 6-benzyl-3-((1-methyl-1H-imidazol-4-yl)methyl)-2,3,4,6-tetrahydropyrido[3,4-c][1,8]naphthyridine-5-(1H)-one] came in with an IC50 in the assay on MV4; 11 cells of 1000 to 10000 nM. In addition, the EC50 on hClpP lay in the range of 10000 to 100000 nM.
`CCc1ccc(Cn2c(=O)c3c(c4cccnc42)CCN(Cc2cccc(Cl)c2)C3)cc1` [Compound I-96, 6-(4-ethylbenzyl)-3-(3-chlorobenzyl)-2,3,4,6-tetrahydropyrido[3,4-c][1,8]naphthyridine-5-(1H)-one]: in the assay with MV4; 11 cells, the IC50 is less than 1000 nM. The same molecule yielded an EC50 on hClpP of less than 1000 nM.
`O=c1c2c(c3cccnc3n1Cc1cccc(Cl)c1)CCN(Cc1ccccc1)C2` [Compound I-47, 3-benzyl-6-(3-chlorobenzyl)-2,3,4,6-tetrahydropyrido[3,4-c][1,8]naphthyridine-5-(1H)-one] had an IC50 in the assay on MV4; 11 cells of less than 1000 nM. Besides, the EC50 on hClpP was less than 1000 nM.
In the assay with MV4; 11 cells, `Cc1ccc(Cn2c(=O)c3c(c4cccnc42)CCN(Cc2cccc(Cl)c2)C3)cc1` [Compound I-92, 6-(4-methylbenzyl)-3-(3-chlorobenzyl)-2,3,4,6-tetrahydropyrido[3,4-c][1,8]naphthyridine-5-(1H)-one] showed an IC50 of less than 1000 nM. This molecule returned an EC50 at hClpP of less than 1000 nM.
`Cn1ccc(Cn2c(=O)c3c(c4cccnc42)CCN(Cc2ccccc2)C3)n1` [Compound I-58, 3-benzyl-6-((1-methyl-1H-pyrazol-3-yl)methyl)-2,3,4,6-tetrahydropyrido[3,4-c][1,8]naphthyridine-5-(1H)-one] displayed an IC50 with MV4; 11 cells of 1000 to 10000 nM. The EC50 on hClpP lay in the range of 10000 to 100000 nM.
The corresponding values for `Cc1cc(Cn2c(=O)c3c(c4cccnc42)CCN(Cc2ccccc2)C3)n(C)n1` [Compound I-60, 3-benzyl-6-((1,3-dimethyl-1H-pyrazol-5-yl)methyl)-2,3,4,6-tetrahydropyrido[3,4-c][1,8]naphthyridine-5-(1H)-one] are 1000 to 10000 nM and 10000 to 100000 nM.
The matching figures for `O=c1c2c(c3cccnc3n1Cc1ccccc1)CCN(CC1CC1)C2` [Compound I-1, 6-benzyl-3-(cyclopropylmethyl)-2,3,4,6-tetrahydropyrido[3,4-c][1,8]naphthyridine-5-(1H)-one]: 1000 to 10000 nM and 10000 to 100000 nM.
Turning to `O=c1c2c(c3cncnc3n1Cc1ccc(C(F)(F)F)cc1)CCN(Cc1ccccc1)C2` [Compound I-81, 8-benzyl-5-(4-(trifluoromethyl)benzyl)-7,8,9,10-tetrahydropyrimidinyl[4,5-c][2,7]naphthyridine-6-(5H)-one], the IC50 in the assay with MV4; 11 cells is less than 1000 nM. Besides, the EC50 at hClpP was less than 1000 nM.
In the case of `Cn1cncc1Cn1c(=O)c2c(c3cccnc31)CCN(Cc1ccccc1)C2` [Compound I-67, 3-benzyl-6-((1-methyl-1H-imidazol-5-yl)methyl)-2,3,4,6-tetrahydropyrido[3,4-c][1,8]naphthyridine-5-(1H)-one], in the assay on MV4; 11 cells, the IC50 lay within 1000 to 10000 nM. Moreover, the EC50 on hClpP was in the range of 10000 to 100000 nM.
The corresponding values for `N#Cc1cccc(CN2CCc3c(c(=O)n(Cc4ccc(Cl)cc4)c4ncnn34)C2)c1` [Compound I-155, 4-(4-chlorobenzyl)-7-(3-cyanobenzyl)-6,7,8,9-tetrahydropyrido[3,4-e][1,2,4]triazolo[1,5-a]pyrimidine-5(4H)-one] are 1000 to 10000 nM and 1000 to 10000 nM.
On to `O=c1c2c(n3nccc3n1Cc1ccccc1)CCN(Cc1cccc(Cl)c1)C2` [Compound I-156, 4-benzyl-7-(3-chlorobenzyl)-6,7,8,9-tetrahydropyrazolo[1,5-a]pyrido[3,4-e]pyrimidine-5(4H)-one], for which, in the assay with MV4; 11 cells, the IC50 lay in the range of 1000 to 10000 nM. In addition, the EC50 on hClpP is 1000 to 10000 nM.
Take `COc1ccc(CN2CCc3c(c(=O)n(Cc4ccccc4)c4ncccc34)C2)cc1` [Compound I-23, 6-benzyl-3-(4-methoxybenzyl)-2,3,4,6-tetrahydropyrido[3,4-c][1,8]naphthyridine-5-(1H)-one]: the IC50 with MV4; 11 cells is less than 1000 nM. On hClpP, this molecule had an EC50 of 1000 to 10000 nM.
The molecule `O=c1c2c(c3cccnc3n1Cc1ccccc1)CCN(Cc1ccc(Cl)cc1)C2` [Compound I-19, 6-benzyl-3-(4-chlorobenzyl)-2,3,4,6-tetrahydropyrido[3,4-c][1,8]naphthyridine-5-(1H)-one] came in with an IC50 in the assay with MV4; 11 cells of less than 1000 nM. At hClpP, this molecule yielded an EC50 of 1000 to 10000 nM.
Turning to `Cc1noc(C)c1Cn1c(=O)c2c(c3cccnc31)CCN(Cc1ccccc1)C2` [Compound I-68, 3-benzyl-6-((3,5-dimethylisoxazol-4-yl)methyl)-2,3,4,6-tetrahydropyrido[3,4-c][1,8]naphthyridine-5-(1H)-one], in the assay on MV4; 11 cells, the IC50 is 1000 to 10000 nM. This molecule also showed an EC50 at hClpP of 10000 to 100000 nM.
Turning to `O=c1c2c(c3ccsc3n1Cc1ccc(C(F)(F)F)cc1)CCN(Cc1ccccc1)C2` [Compound I-104, 7-benzyl-4-(4-trifluoromethylbenzyl)-6,7,8,9-tetrahydrothieno[2,3-C][2,7]naphthyridine-5(4H)-one], the 50% inhibitory concentration (IC50) in the assay with MV4; 11 cells is less than 1000 nM. The molecule further registered an EC50 at hClpP of less than 1000 nM.
Regarding `Cc1cccc(CN2CCc3c(c(=O)n(Cc4ccc(F)cc4F)c4nccn34)C2)c1` [Compound I-125, 7-(3-methylbenzyl)-4-(2,4-difluorobenzyl)-6,7,8,9-tetrahydroimidazo[1,2-a]pyrido[3,4-e]pyrimidine-5(4H)-one], the IC50 in the assay with MV4; 11 cells was less than 1000 nM. Besides, on hClpP, the EC50 was less than 1000 nM.

Source of the values: patent publication US20240327408A1, “COMPOUNDS CONTAINING TETRAHYDRONAPHTHYRIDINONE OR TETRAHYDROPYRIDOPYRIMIDINONE SKELETON, PREPARATION METHOD THEREFOR AND PHARMACEUTICAL USE THEREOF” (CHINA PHARMACEUTICAL UNIVERSITY, priority 2021, published 2024).
